Assay results from patent publication US7507730B2, “Substituted pyrazolo[1,5-a]pyrimidines as potassium channel activators” (Bristol-Myers Squibb Company, priority 2005, dated 2009).

Molecular target: Kv1.5 (Homo sapiens, UniProt P22460)
Test: Kv1.5 inhibition assay (IKur inhibitor assay per cited references)
Assay type: cell-based
Settings: for inhibition at 0.3 µM / Kv1.5% inhibition: at 0.3 μM; for IC50: read-out: Kv1.5 IC50
Source text: Assays to determine the degree of activity of a compound as an IKur inhibitor are well known in the art and are described in references such as J. Gen. Physiol. Apr.; 101 (4):513-43, and Br. J. Pharmacol. 1995 May; 115(2):267-74.

Kv1.5, sequence (P22460 whole entry): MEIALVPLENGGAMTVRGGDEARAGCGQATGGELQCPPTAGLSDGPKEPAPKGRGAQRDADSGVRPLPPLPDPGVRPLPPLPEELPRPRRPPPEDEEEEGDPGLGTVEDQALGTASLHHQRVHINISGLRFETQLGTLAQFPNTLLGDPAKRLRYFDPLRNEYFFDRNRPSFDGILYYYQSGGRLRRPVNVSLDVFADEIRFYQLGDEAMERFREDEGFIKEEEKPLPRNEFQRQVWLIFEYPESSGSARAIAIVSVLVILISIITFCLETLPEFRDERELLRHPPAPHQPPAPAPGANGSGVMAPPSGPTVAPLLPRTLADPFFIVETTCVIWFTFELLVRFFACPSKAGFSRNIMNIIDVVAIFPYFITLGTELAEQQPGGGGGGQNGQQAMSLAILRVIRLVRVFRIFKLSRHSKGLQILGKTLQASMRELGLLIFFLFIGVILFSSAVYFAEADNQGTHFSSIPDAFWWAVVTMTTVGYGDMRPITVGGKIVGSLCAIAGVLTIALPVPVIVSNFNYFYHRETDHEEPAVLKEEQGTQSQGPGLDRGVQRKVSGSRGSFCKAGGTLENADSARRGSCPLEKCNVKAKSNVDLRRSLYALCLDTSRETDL

| Compound | inhibition at 0.3 µM | Kv1.5% inhibition | other results |
| --- | --- | --- | --- |
| COc1ccc(NS(=O)(=O)C2=C(C)Nc3cc(C)nn3C2c2ccc(Cl)c(Cl)c2)cc1 (racemic) [Example 37, 7-(3,4-Dichlorophenyl)-N-(4-methoxyphenyl)-2,5-dimethyl-4,7-dihydropyrazolo[1,5-a]pyrimidine-6-sulfonamide] | 25% |  |  |
| CC1=C(S(=O)(=O)c2ccccn2)C(c2ccc(Cl)c(Cl)c2)n2nc(C)cc2N1 (single isomer, unassigned) [Example 11 Isomer 1, 7-(3,4-Dichlorophenyl)-2,5-dimethyl-6-(pyridin-2-ylsulfonyl)-4,7-dihydropyrazolo[1,5-a]pyrimidine] |  | 72.5% |  |
| CC1=C(S(=O)(=O)C2CCCCC2)C(c2ccc(Cl)c(Cl)c2)n2nc(C)cc2N1 (single isomer, unassigned) [Example 10 Isomer 1, 6-(Cyclohexylsulfonyl)-7-(3,4-dichlorophenyl)-2,5-dimethyl-4,7-dihydropyrazolo[1,5-a]pyrimidine] |  |  | IC50: 77 nM |
| CC1=C(S(=O)(=O)c2ccc(C)cc2)C(c2ccc(Cl)cc2)n2nc(C(F)(F)F)cc2N1 (single isomer, unassigned) [Example 28 Isomer 1, 7-(4-Chlorophenyl)-5-methyl-6-tosyl-2-(trifluoromethyl)-4,7-dihydropyrazolo[1,5-a]pyrimidine] | 77.4% |  |  |
| CC1=C(S(=O)(=O)c2ccc(F)cc2)C(c2ccc(Cl)cc2)n2nc(C(F)(F)F)cc2N1 (single isomer, unassigned) [Example 27 Isomer 2, 7-(4-Chlorophenyl)-6-(4-fluorophenylsulfonyl)-5-methyl-2-(trifluoromethyl)-4,7-dihydropyrazolo[1,5-a]pyrimidine] |  |  | IC50: 92 nM |
| COc1cccc(S(=O)(=O)C2=C(C)Nc3cc(C(F)(F)F)nn3C2c2ccc(Cl)cc2)c1 (single isomer, unassigned) [Example 40 Isomer 1, 7-(4-Chlorophenyl)-6-(3-methoxyphenylsulfonyl)-5-methyl-2-(trifluoromethyl)-4,7-dihydropyrazolo[1,5-a]pyrimidine] | 94.4% |  |  |
| COc1ccc(S(=O)(=O)C2=C(C)Nc3cc(C)nn3C2c2ccc(Cl)cc2)cc1 (single isomer, unassigned) [Example 19 Isomer 1, 7-(4-Chlorophenyl)-6-(4-methoxyphenylsulfonyl)-2,5-dimethyl-4,7-dihydropyrazolo[1,5-a]pyrimidine] |  |  | IC50: 55 nM |
| COc1cccc(S(=O)(=O)C2=C(C)Nc3cc(C(F)(F)F)nn3C2c2ccc(C)c(F)c2)c1 (single isomer, unassigned) [Example 41 Isomer 1, 7-(3-Fluoro-4-methylphenyl)-6-(3-methoxyphenylsulfonyl)-5-methyl-2-(trifluoromethyl)-4,7-dihydropyrazolo[1,5-a]pyrimidine] | 84.4% |  |  |
| CC1=C(S(=O)(=O)c2ccc(Cl)cc2)C(CC(C)C)n2nc(C(F)(F)F)cc2N1 (single isomer, unassigned) [Example 45 Isomer 2, 6-(4-Chlorophenylsulfonyl)-7-isobutyl-5-methyl-2-(trifluoromethyl)-4,7-dihydropyrazolo[1,5-a]pyrimidine] | 48% |  |  |
| CC1=C(S(=O)(=O)c2ccc(Cl)cc2)C(c2ccc(Cl)cc2)n2nc(C(F)(F)F)cc2N1 (single isomer, unassigned) [Example 31 Isomer 1, 7-(4-Chlorophenyl)-6-(4-chlorophenylsulfonyl)-5-methyl-2-(trifluoromethyl)-4,7-dihydropyrazolo[1,5-a]pyrimidine] | 82.7% |  |  |
| CC1=C(C(=O)N2CCN(C)S2(=O)=O)C(c2ccc(Cl)c(Cl)c2)n2nc(C)cc2N1 (racemic) [Example 83] | 40% |  |  |
| CC1=C(S(=O)(=O)Cc2ccccc2)C(c2ccc(Cl)c(Cl)c2)n2nc(C(F)(F)F)cc2N1 (racemic) [Example 16, 6-(Benzylsulfonyl)-7-(3,4-dichlorophenyl)-5-methyl-2-(trifluoromethyl)-4,7-dihydropyrazolo[1,5-a]pyrimidine] | 37.2% |  |  |
| COc1ccc(S(=O)(=O)C2=C(CO)Nc3cc(C(F)(F)F)nn3C2c2ccc(Cl)cc2)cc1 (single isomer, unassigned) [Example 49 Isomer 2, (7-(4-Chlorophenyl)-6-(4-methoxyphenylsulfonyl)-2-(trifluoromethyl)-4,7-dihydropyrazolo[1,5-a]pyrimidin-5-yl)methanol] |  | 71.2% |  |
| CCCCS(=O)(=O)NC(=O)C1=C(C)Nc2cc(C(F)(F)F)nn2C1c1ccc(Cl)c(Cl)c1 (racemic) [Example 85, N-(Butylsulfonyl)-7-(3,4-dichlorophenyl)-5-methyl-2-(trifluoromethyl)-4,7-dihydropyrazolo[1,5-a]pyrimidine-6-carboxamide] | 11% |  |  |
| CC1=C(S(=O)(=O)Cc2ccccc2)C(c2ccc(Cl)c(Cl)c2)n2nc(C)cc2N1 (racemic) [Example 14, 6-(Benzylsulfonyl)-7-(3,4-dichlorophenyl)-2,5-dimethyl-4,7-dihydropyrazolo[1,5-a]pyrimidine] | 50.4% |  |  |
| CC1=C(S(=O)(=O)c2ccc(Cl)cc2)C(c2ccc(C)cc2)n2nc(C(F)(F)F)cc2N1 (racemic) [Example 34, 6-(4-Chlorophenylsulfonyl)-5-methyl-7-p-tolyl-2-(trifluoromethyl)-4,7-dihydropyrazolo[1,5-a]pyrimidine] | 37.6% |  |  |
| CCCCS(=O)(=O)N(C)C(=O)C1=C(C)Nc2cc(C(F)(F)F)nn2C1c1ccc(Cl)c(Cl)c1 (racemic) [Example 86, N-(Butylsulfonyl)-7-(3,4-dichlorophenyl)-N,5-dimethyl-2-(trifluoromethyl)-4,7-dihydropyrazolo[1,5-a]pyrimidine-6-carboxamide] |  |  | IC50: 242 nM |
| COc1ccc(S(=O)(=O)C2=C(C)Nc3cc(C)nn3C2c2ccc(C)c(F)c2)cc1 (single isomer, unassigned) [Example 24 Isomer 1, 7-(3-Fluoro-4-methylphenyl)-6-(4-methoxyphenylsulfonyl)-2,5-dimethyl-4,7-dihydropyrazolo[1,5-a]pyrimidine] |  |  | IC50: 148 nM |
| CC1=C(S(=O)(=O)N2CCCC2)C(c2ccc(Cl)cc2)n2nc(C(F)(F)F)cc2N1 (single isomer, unassigned) [Example 67 Isomer 1, 7-(4-Chlorophenyl)-5-methyl-6-(pyrrolidin-1-ylsulfonyl)-2-(trifluoromethyl)-4,7-dihydropyrazolo[1,5-a]pyrimidine] | 60% |  |  |

Continued, in another order:

| inhibition at 0.3 µM | Kv1.5% inhibition | Compound | other results |
| --- | --- | --- | --- |
| 18.1% |  | COc1ccc(S(=O)(=O)C2=C(C)Nc3cc(C)nn3C2c2cccc(Cl)c2)cc1 (single isomer, unassigned) [Example 17 Isomer 2, 7-(3-Chlorophenyl)-6-(4-methoxyphenylsulfonyl)-2,5-dimethyl-4,7-dihydropyrazolo[1,5-a]pyrimidine] |  |
| 83.2% |  | CC1=C(S(=O)(=O)N(C)c2ccccc2)C(c2ccc(Cl)c(Cl)c2)n2nc(C)cc2N1 (racemic) [Example 60, 7-(3,4-Dichlorophenyl)-N,2,5-trimethyl-N-phenyl-4,7-dihydropyrazolo[1,5-a]pyrimidine-6-sulfonamide] |  |
|  | 84.6% | CCCCS(=O)(=O)C1=C(C)Nc2cc(C)nn2C1c1ccc(Cl)c(Cl)c1 (single isomer, unassigned) [Example 18 Isomer 1, 6-(Butylsulfonyl)-7-(3,4-dichlorophenyl)-2,5-dimethyl-4,7-dihydropyrazolo[1,5-a]pyrimidine] |  |
|  | 95.7% | CC1=C(S(=O)(=O)N2CCCC2)C(c2ccc(Cl)c(Cl)c2)n2nc(C)cc2N1 (single isomer, unassigned) [Example 53 Isomer 1, 7-(3,4-Dichlorophenyl)-2,5-dimethyl-6-(pyrrolidin-1-ylsulfonyl)-4,7-dihydropyrazolo[1,5-a]pyrimidine] |  |
|  | 63% | CC1=C(C(=O)N(C)S(=O)(=O)c2c(C)noc2C)C(c2ccc(Cl)c(Cl)c2)n2nc(C)cc2N1 (single isomer, unassigned) [Example 94 Isomer 2, 7-(3,4-Dichlorophenyl)-N-(3,5-dimethylisoxazol-4-ylsulfonyl)-N,2,5-trimethyl-4,7-dihydropyrazolo[1,5-a]pyrimidine-6-carboxamide] |  |
|  | 81.9% | CC1=C(S(=O)(=O)c2ccc(Cl)cc2)C(c2ccc(Cl)cc2)n2nc(C(F)(F)F)cc2N1 (single isomer, unassigned) [Example 31 Isomer 2, 7-(4-Chlorophenyl)-6-(4-chlorophenylsulfonyl)-5-methyl-2-(trifluoromethyl)-4,7-dihydropyrazolo[1,5-a]pyrimidine] |  |
|  | 51% | CC1=C(C(=O)N(C)S(=O)(=O)c2ccccc2)C(c2ccc(Cl)c(Cl)c2)n2nc(C(F)(F)F)cc2N1 (single isomer, unassigned) [Example 90 Isomer 2, 7-(3,4-Dichlorophenyl)-N,5-dimethyl-N-(phenylsulfonyl)-2-(trifluoromethyl)-4,7-dihydropyrazolo[1,5-a]pyrimidine-6-carboxamide] |  |
| 57% |  | CC1=C(C(=O)N(C)S(=O)(=O)C(C)C)C(c2ccc(Cl)c(Cl)c2)n2nc(C(F)(F)F)cc2N1 (single isomer, unassigned) [Example 96 Isomer 1, 7-(3,4-Dichlorophenyl)-N-(isopropylsulfonyl)-N,5-dimethyl-2-(trifluoromethyl)-4,7-dihydropyrazolo[1,5-a]pyrimidine-6-carboxamide] |  |
|  | 54.7% | CC1=C(S(=O)(=O)N2CCCC2)C(c2ccc(Cl)c(Cl)c2)n2nc(C)cc2N1 (single isomer, unassigned) [Example 53 Isomer 2, 7-(3,4-Dichlorophenyl)-2,5-dimethyl-6-(pyrrolidin-1-ylsulfonyl)-4,7-dihydropyrazolo[1,5-a]pyrimidine] |  |
|  | 36.9% | CC1=C(S(=O)(=O)NC(C)(C)C)C(c2ccc(Cl)cc2)n2nc(C(F)(F)F)cc2N1 (single isomer, unassigned) [Example 57 Isomer 2, N-tert-Butyl-7-(4-chlorophenyl)-5-methyl-2-(trifluoromethyl)-4,7-dihydropyrazolo[1,5-a]pyrimidine-6-sulfonamide] |  |
